The target in the data set is ATP-dependent translocase ABCB1 (Mus musculus, UniProt P21447). The data set is described as follows: TP_TRANSPORTER: transepithelial transport (apical to basal) in Mdr1a-expressing LLC-PK1 cells. Format: functional, cell-based. To be noted: pig.
ATP-dependent translocase ABCB1, sequence (P21447 whole entry): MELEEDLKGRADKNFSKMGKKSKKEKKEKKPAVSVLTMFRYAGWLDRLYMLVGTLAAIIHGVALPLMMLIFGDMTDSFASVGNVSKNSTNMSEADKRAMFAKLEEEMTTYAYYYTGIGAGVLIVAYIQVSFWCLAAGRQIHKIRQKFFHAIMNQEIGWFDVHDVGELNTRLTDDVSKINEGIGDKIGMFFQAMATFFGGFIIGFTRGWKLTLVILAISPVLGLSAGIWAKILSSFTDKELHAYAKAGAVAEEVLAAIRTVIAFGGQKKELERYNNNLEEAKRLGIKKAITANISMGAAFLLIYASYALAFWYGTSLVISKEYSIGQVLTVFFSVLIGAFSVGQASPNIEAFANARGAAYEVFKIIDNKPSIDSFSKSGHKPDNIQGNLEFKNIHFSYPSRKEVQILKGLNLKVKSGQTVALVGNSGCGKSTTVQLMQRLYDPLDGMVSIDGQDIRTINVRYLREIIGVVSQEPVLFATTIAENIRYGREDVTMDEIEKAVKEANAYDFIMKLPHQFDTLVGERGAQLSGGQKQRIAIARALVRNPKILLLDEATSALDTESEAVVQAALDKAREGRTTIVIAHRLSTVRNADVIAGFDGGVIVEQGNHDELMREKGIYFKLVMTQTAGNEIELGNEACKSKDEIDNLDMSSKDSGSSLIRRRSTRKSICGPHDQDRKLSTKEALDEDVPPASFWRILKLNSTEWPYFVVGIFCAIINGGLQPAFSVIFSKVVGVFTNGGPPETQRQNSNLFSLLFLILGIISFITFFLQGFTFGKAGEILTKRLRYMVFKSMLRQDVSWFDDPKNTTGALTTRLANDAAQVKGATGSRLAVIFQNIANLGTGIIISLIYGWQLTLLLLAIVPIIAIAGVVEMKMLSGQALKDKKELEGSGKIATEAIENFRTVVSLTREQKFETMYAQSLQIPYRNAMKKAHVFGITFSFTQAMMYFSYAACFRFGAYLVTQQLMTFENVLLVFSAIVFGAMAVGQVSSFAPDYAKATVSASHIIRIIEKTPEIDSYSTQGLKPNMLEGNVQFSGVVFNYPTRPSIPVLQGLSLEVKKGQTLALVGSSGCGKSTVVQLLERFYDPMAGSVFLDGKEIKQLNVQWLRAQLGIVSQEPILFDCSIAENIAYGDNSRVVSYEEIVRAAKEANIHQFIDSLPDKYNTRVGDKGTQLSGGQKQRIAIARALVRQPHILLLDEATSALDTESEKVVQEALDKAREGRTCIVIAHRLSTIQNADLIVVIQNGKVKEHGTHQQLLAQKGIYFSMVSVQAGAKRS

In the case of `O=C(O)c1[nH]c2cc(Cl)cc(Cl)c2c1/C=C1\CCN(c2ccccc2)C1=O`, the Activity result is “is not a substrate [-]”.
The same measure for `CC(C)CN(C[C@@H](O)[C@H](Cc1ccccc1)NC(=O)O[C@H]1CCOC1)S(=O)(=O)c1ccc(N)cc1` [AMPRENAVIR]: “substrate [+]”.

Values taken from ChEMBL document CHEMBL2074030, “The systemic exposure of an N-methyl-D-aspartate receptor antagonist is limited in mice by the P-glycoprotein and breast cancer resistance protein efflux transporters” (Drug Metab Dispos, 2004).
